Laboratory results: patent US11419918B2, “Treatment of biliary cirrhosis based on oxyntomodulin analogue GLP-1R/GCGR dual-target agonist peptide” (Shenzhen Turier Biotech Co., Ltd., priority 2017, dated 2022)
Numbered stars: 1 amine (or outer) side, 2 acyl side, 3 side chain; on linkers, the order of the positions; unused ones are H or OH. Square brackets hold non-standard residues; d marks the D form. Primed or numbered codes have the meaning given here. Side chains are listed from the residue outwards. Ends that are not written are not given here. * marks the point of attachment. C18 diacid = O=C(O)CCCCCCCCCCCCCCCCC(=O)*; C16 diacid = O=C(O)CCCCCCCCCCCCCCC(=O)*; γGlu = O=C(O)[C@H](CCC(=O)[*:2])N[*:1]; Stearoyl = CCCCCCCCCCCCCCCCCC(=O)*; Palmitoyl = CCCCCCCCCCCCCCCC(=O)*; Nle = CCCC[C@H](N)C(=O)O; PEG2′ = not defined here; Aib = CC(C)(N)C(=O)O

Legend:
[1] = tested on: human hepatic stellate cells (LX-2); test: In vitro inhibition of hepatic fibrosis: expression of activation marker α-SMA in LX-2 cells (Western Blot, β-actin internal reference); format: cell-based; conditions: 10.0 μM, 48 hours, negative control (PBS) = 100%
Procedure: Hepatic stellate cell strain LX-2 was selected to study and observe the effect of different doses of test substances on the expression of LX-2 cell activation marker α-SMA. Hepatic stellate cell LX-2 was laid on 35 mm cell culture plate, cultured with DMEM (high glucose)+10% FBS+1% double-antibody culture medium (Thermo Fisher), placed overnight when the cells grew to 70% convergence at 37° C. and under the condition of 5% CO2, and treated with the above GLP-1R/GCGR dual target agonist polypeptides 1-48 (dissolved in PBS) for 48 hours the next day morning to extract cell protein, carry out Western Blot, and take β-actin as internal reference and analyze the expression quantities of α-SMA and β-actin by a gray level of Image J 1.50i. PBS with the same volume as that in experimental group was added in negative control. […] The integrating gray level of α-SMA/β-actin in the negative control group was 100% to analyze the in vitro inhibition activity of hepatic fibrosis of tested polypeptide.

[2] = tested on: BDL-induced cholestasis hepatic fibrosis in rats; test: Bile duct ligation (BDL)-induced hepatic fibrosis in rats (biliary cirrhosis rat model); format: in vivo, SD rats; conditions: 50 μg/kg subcutaneous every two days, 14 days
Procedure: 1. Experimental Drugs: polypeptide compounds 3, 6, 7, 10, 17, 20, 37, 38, 39, 40, 44, 46, Obeticholic Acid (Abbr. OCA, CAS:459789-99-2, purchased from Zhejiang Warrant Pharmaceutical Co., Ltd.) and Liraglutide. Saving condition was −20° C.
128 male SD rats with body weight of 200-230 g were randomly divided into sixteen groups, which were respectively:
SD rats with body weight of 200-230 g at SPF level were provided by Lanzhou University Laboratory Animal Center. After rats were quarantined in the room (SPF environment) for one week, model rat and rat in sham-operated group were subject to intraperitoneal injection and anesthesia with 0.6% pentobarbital sodium solution, and operation was performed on a super clean bench after anesthesia. Bilateral ligation was conducted on model rat after the common bile duct was separated, and ligation was not conducted on rat in sham-operated group, but only the common bile duct was separated. Administration was started from the next day of the operation.
Administration was started from the first day of the operation, and subcutaneous injection of compounds 3, 6, 7, 10, 17, 20, 37, 38, 39, 40, 44, 46 and Liraglutide with 50 μg/kg was performed every two days; intraperitoneal injection for the Obeticholic Acid administration group with 7.5 mg/kg was performed every day; as for the normal saline group, injection was performed every day. During the administration, changes in vital signs of rats were observed every day.
After the end of two weeks of administration cycle (14 days), the rats were killed to collect materials for subsequent biological determination experiments. The livers were taken out for HE dye, Sirius Red dye and IHC dye. Image-pro plus and Graph pad software were used for statistics.

Row | Substance | Relative expression of α-SMA (α-SMA/β-actin, %) [1] [%] | ALT in the serum (FIG. 6) [2] | BDL-induced hepatic fibrosis and inflammation (HE, Sirius Red, IHC sections) [2] | collagenous fiber deposition in liver (Sirius Red dyed sections, FIGS. 2, 4) [2] | content of hydroxyproline of the liver (FIG. 7) [2] | α-SMA in liver (IHC dyed sections, FIGS. 3, 5) [2]
1 | His-(D-Ser)-Gln-Gly-Thr-Phe-Thr-Ser-Asp-Lys(PEG2-PEG2-CO(CH2)14CH3)-Ser-Lys-Tyr-Leu-Asp-Aib-Arg-Arg-Ala-Gln-Asp-Phe-Val-Gln-Trp-Leu-Leu-Asn-Thr-Gly-Gly-Pro-Ser-Ser-Gly-Ala-Pro-Pro-Pro-Ser-NH2 (H[dS]QGTFTSDK([PEG2′-PEG2′-Palmitoyl])SKYLD[Aib]RRAQDFVQWLLNTGGPSSGAPPPS-NH2) [Compound 44] | 39.19 | significantly inhibit | significantly reduce | significantly inhibit | significantly inhibit | significantly inhibit
2 | His-(D-Ser)-Gln-Gly-Thr-Phe-Thr-Ser-Asp-Lys(PEG2-PEG2-CO(CH2)16CO2H-Ser-Lys-Tyr-Leu-Asp-Aib-Arg-Arg-Ala-Gln-Asp-Phe-Val-Gln-Trp-Leu-Nle-Asn-Thr-Gly-Gly-Pro-Ser-Ser-Gly-Ala-Pro-Pro-Pro-Ser-NH2 (H[dS]QGTFTSDK([PEG2′-PEG2′-C18 diacid])SKYLD[Aib]RRAQDFVQWL[Nle]NTGGPSSGAPPPS-NH2) [Compound 46] | 36.84 | significantly inhibit | significantly reduce | significantly inhibit | significantly inhibit | significantly inhibit
3 | His-(D-Ser)-Gln-Gly-Thr-Phe-Thr-Ser-Asp-Tyr-Ser-Lys(PEG2-PEG2-CO(CH2)16CH3)-Lys-Leu-Asp-Aib-Arg-Arg-Ala-Gln-Asp-Phe-Val-Gln-Trp-Leu-Met-Asn-Thr-Gly-Gly-Pro-Ser-Ser-Gly-Ala-Pro-Pro-Pro-Ser-NH2 (H[dS]QGTFTSDYSK([PEG2′-PEG2′-Stearoyl])KLD[Aib]RRAQDFVQWLMNTGGPSSGAPPPS-NH2) [Compound 3] | 32.25 | significantly inhibit | significantly reduce | significantly inhibit | significantly inhibit | significantly inhibit
4 | His-(D-Ser)-Gln-Gly-Thr-Phe-Thr-Ser-Asp-Tyr-Ser-Lys-Tyr-Leu-Asp-Ser-Lys(PEG2-PEG2-γGlu-CO(CH2)16CO2H)-Ala-Ala-His-Asp-Phe-Val-Glu-Trp-Leu-Leu-Asn-Gly-Gly-Pro-Ser-Ser-Gly-Ala-Pro-Pro-Pro-Ser-NH2 (H[dS]QGTFTSDYSKYLDSK([PEG2′-PEG2′-γGlu-C18 diacid])AAHDFVEWLLNGGPSSGAPPPS-NH2) [Compound 21] | 37.66 | – | – | – | – | –
5 | His-Aib-Gln-Gly-Thr-Phe-Thr-Ser-Asp-Lys(PEG2-PEG2-γGlu-CO(CH2)14CH3)-Ser-Lys-Tyr-Leu-Asp-Aib-Arg-Arg-Ala-Gln-Asp-Phe-Val-Gln-Trp-Leu-Leu-Asp-Gly-Gly-Pro-Ser-Ser-Gly-Ala-Pro-Pro-Pro-Ser-NH2 (H[Aib]QGTFTSDK([PEG2′-PEG2′-γGlu-Palmitoyl])SKYLD[Aib]RRAQDFVQWLLDGGPSSGAPPPS-NH2) [Compound 8] | 38.25 | – | – | – | – | –
6 | His-Aib-Gln-Gly-Thr-Phe-Thr-Ser-Asp-Lys(PEG2-PEG2-γGlu-CO(CH2)14CH3)-Ser-Lys-Tyr-Leu-Asp-Glu-Arg-Arg-Ala-Gln-Asp-Phe-Val-Gln-Trp-Leu-Leu-Asp-Gly-Gly-Pro-Ser-Ser-Gly-Ala-Pro-Pro-Pro-Ser-NH2 (H[Aib]QGTFTSDK([PEG2′-PEG2′-γGlu-Palmitoyl])SKYLDERRAQDFVQWLLDGGPSSGAPPPS-NH2) [Compound 16] | 40.35 | – | – | – | – | –
7 | His-Aib-Gln-Gly-Thr-Phe-Thr-Ser-Asp-Lys(PEG2-PEG2-γGlu-CO(CH2)14CO2H)-Ser-Lys-Tyr-Leu-Asp-Aib-Arg-Arg-Ala-Gln-Asp-Phe-Val-Gln-Trp-Leu-Leu-Asp-Gly-Gly-Pro-Ser-Ser-Gly-Ala-Pro-Pro-Pro-Ser-NH2 (H[Aib]QGTFTSDK([PEG2′-PEG2′-γGlu-C16 diacid])SKYLD[Aib]RRAQDFVQWLLDGGPSSGAPPPS-NH2) [Compound 11] | 41.78 | – | – | – | – | –
8 | His-Aib-Gln-Gly-Thr-Phe-Thr-Ser-Asp-Lys(PEG2-PEG2-γGlu-CO(CH2)14CO2H)-Ser-Lys-Tyr-Leu-Asp-Glu-Arg-Arg-Ala-Gln-Asp-Phe-Val-Gln-Trp-Leu-Leu-Asp-Gly-Gly-Pro-Ser-Ser-Gly-Ala-Pro-Pro-Pro-Ser-NH2 (H[Aib]QGTFTSDK([PEG2′-PEG2′-γGlu-C16 diacid])SKYLDERRAQDFVQWLLDGGPSSGAPPPS-NH2) [Compound 13] | 37.93 | – | – | – | – | –
9 | His-Aib-Gln-Gly-Thr-Phe-Thr-Ser-Asp-Lys(PEG2-PEG2-γGlu-CO(CH2)16CH3)-Ser-Lys-Tyr-Leu-Asp-Aib-Arg-Arg-Ala-Gln-Asp-Phe-Val-Gln-Trp-Leu-Leu-Asp-Gly-Gly-Pro-Ser-Ser-Gly-Ala-Pro-Pro-Pro-Ser-NH2 (H[Aib]QGTFTSDK([PEG2′-PEG2′-γGlu-Stearoyl])SKYLD[Aib]RRAQDFVQWLLDGGPSSGAPPPS-NH2) [Compound 12] | 36.99 | – | – | – | – | –
10 | His-Aib-Gln-Gly-Thr-Phe-Thr-Ser-Asp-Lys(PEG2-PEG2-γGlu-CO(CH2)16CH3)-Ser-Lys-Tyr-Leu-Asp-Glu-Arg-Arg-Ala-Gln-Asp-Phe-Val-Gln-Trp-Leu-Leu-Asp-Gly-Gly-Pro-Ser-Ser-Gly-Ala-Pro-Pro-Pro-Ser-NH2 (H[Aib]QGTFTSDK([PEG2′-PEG2′-γGlu-Stearoyl])SKYLDERRAQDFVQWLLDGGPSSGAPPPS-NH2) [Compound 14] | 42.80 | – | – | – | – | –
11 | His-Aib-Gln-Gly-Thr-Phe-Thr-Ser-Asp-Lys(PEG2-PEG2-γGlu-CO(CH2)16CO2H)-Ser-Lys-Tyr-Leu-Asp-Aib-Arg-Arg-Ala-Gln-Asp-Phe-Val-Gln-Trp-Leu-Leu-Asp-Gly-Gly-Pro-Ser-Ser-Gly-Ala-Pro-Pro-Pro-Ser-NH2 (H[Aib]QGTFTSDK([PEG2′-PEG2′-γGlu-C18 diacid])SKYLD[Aib]RRAQDFVQWLLDGGPSSGAPPPS-NH2) [Compound 19] | 39.75 | – | – | – | – | –
12 | His-Aib-Gln-Gly-Thr-Phe-Thr-Ser-Asp-Lys(PEG2-PEG2-γGlu-CO(CH2)16CO2H)-Ser-Lys-Tyr-Leu-Asp-Glu-Arg-Arg-Ala-Gln-Asp-Phe-Val-Gln-Trp-Leu-Leu-Asp-Gly-Gly-Pro-Ser-Ser-Gly-Ala-Pro-Pro-Pro-Ser-NH2 (H[Aib]QGTFTSDK([PEG2′-PEG2′-γGlu-C18 diacid])SKYLDERRAQDFVQWLLDGGPSSGAPPPS-NH2) [Compound 15] | 57.29 | – | – | – | – | –
